One compound from patent publication US20070014739A1, “Compositions and methods for controlling biofilms and bacterial infections” (priority 2005, published 2007) can be followed below.

The nature of series [1]: Bladder concentrations in rats (pharmacokinetic study). The note with it: rat, in vivo, po, 50 mg/kg. On the procedure:
Pharmacokinetic studies of asiatic acid and madecassic acid in rats were performed separately. Asiatic acid and madecassic acid were evaluated at 50 mg/kg (oral). Two animals were assigned to the each group. Prior to dosing, a baseline blood sample was taken from each animal. At time zero for asiatic acid and madecassic acid, a single bolus dose in 50% Labrasol (Gattefosse) was given to each animal. Bladders were analyzed at 24 hours. Concentrations of both asiatic acid and madecassic acid in the bladder were approximately 30 μg/g at 24 hours.

For series [2], the system named is Clinical isolates of P. aeruginosa from cystic fibrosis patients. Briefly: Detachment of mature biofilms on peg lids, crystal violet. Particulars: 5 ug/ml, approximately 40 hours; eighteen clinical isolates; compared to negative controls. The series is classed as cell-based. On the procedure: Clinical isolates of P. aeruginosa from cystic fibrosis patients were passed twice on tryptic soy agar with 5% sheep blood after retrieval from −80° C. and then grown overnight in CAMHB. After dilution of a culture to 0.5 McFarland in broth medium, 100 μl was transferred in triplicate to wells of a flat-bottom 96-well microtiter plate. Bacterial biofilms were formed by immersing the pegs of a modified polystyrene microtiter lid into this biofilm growth plate, followed by incubation at 37° C. for 20 hours with no movement.
Peg lids were rinsed three times in sterile water, placed onto flat-bottom microtiter plates containing biofilm inhibitors at 5 ug/ml in 100 μl of CAMHB per well and incubated for approximately 40 hours at 37° C.
Pegs were rinsed, placed in a 0.1% (wt/vol) crystal violet solution for 15 min, rinsed again, and dried for several hours. To solubilize adsorbed crystal violet, pegs were incubated in 95% ethanol (150 μl per well of a flat-bottom microtiter plate) for 15 min. The absorbance was read at 590 nm on a plate reader. The wells containing asiatic acid were compared to negative controls. Negative controls were prepared as stated above but without asiatic acid.

The test system of the next series is E. coli UTI89[pCOMGFP]. Nature of the series: Bladder colonization (CFU) in infected mice, oral treatment. The series is classed as in vivo, Escherichia coli. Particulars: C3H/HeN mice, approximately 2 days after inoculation.
In series [3] the test system is P. aeruginosa strain PAO1. Briefly: Rotating disk reactor (RDR) biofilm test with and without tobramycin, culturable bacteria. The series is classed as cell-based, Pseudomonas aeruginosa. The note with it: average of three days; for CFU, Test Compound: no tobramycin; for CFU, Tobramycin and Test Compound: then tobramycin 100 μg/ml 2 h. As to the method: Biofilm formation of P. aeruginosa was evaluated using a standardized biofilm method with a rotating disk reactor (RDR). This method provides a model resembling the formation of biofilms in cystic fibrosis patients. The rotating disk reactor consists of a one-liter glass beaker fitted with a drain spout. The bottom of the vessel contains a magnetically driven rotor with six 1.27 cm diameter coupons constructed from polystyrene. The rotor consists of a star-head magnetic stir bar upon which a disk was affixed to hold the coupons. The vessel with the stir bar was placed on a stir plate and rotated to provide fluid shear. A nutrient solution (AB Trace Medium with 0.3 mM glucose, see Table 3 below for composition) was added through a stopper in the top of the reactor at a flow rate of 5 ml/min. The reactor volume was approximately 180 ml and varied slightly between reactors depending on the placement of the drain spout and the rotational speed of the rotor. At a volume of 180 ml, the residence time of the reactors was 36 minutes. The reactors were operated at room temperature (c.a. 26° C.).
For each test, two RDRs were operated in parallel with one receiving test compound and the other serving as an untreated control. The RDRs were sterilized by autoclave, then filled with sterile medium and inoculated with P. aeruginosa strain PAO1. The reactors were then incubated at room temperature in batch mode (no medium flow) for a period of 24 hours, after which the flow was initiated for a further 24 hour incubation. Test compounds were dissolved in 10 ml ethanol to achieve a concentration of 1.8 mg/ml. After the 48 hours of biofilm development described above, the 10 ml of ethanol containing the test compounds were added to the reactor to achieve a final concentration of approximately 50, 100, or 200 μg/ml. Control reactors received 10 ml of ethanol. The reactors were then incubated for an additional 24 hours in batch (no flow) mode. After this incubation period, the six coupons were removed from each reactor and placed in 12-well polystyrene tissue culture plates with wells containing either 2 ml of a 100 μg/ml tobramycin solution or 2 ml of phosphate-buffered saline (PBS). These plates were incubated at room temperature for two hours. The coupons were then rinsed by three transfers to plates containing 2 ml of fresh PBS. For each two RDR reactors run in parallel, four sets of three coupons were obtained: one set with no test compound treatment and no tobramycin treatment, one set with no test compound treatment and tobramycin treatment, one set treated with a test compound treatment and no tobramycin treatment, and one set treated with a test compound treatment and tobramycin. After rinsing, one coupon of each set of three was stained with a LIVE/DEAD® BacLight™ Bacterial Viability Kit (Molecular Probes, Eugene Oreg.) and imaged using epifluorescent microscopy. The remaining two coupons were placed in 10 ml of PBS and sonicated for five minutes to remove and disperse biofilm cells. The resulting bacterial suspensions were then serially diluted in PBS and plated on tryptic soy agar plates for enumeration of culturable bacteria. The plates were incubated for 24 hours at 37° C. before colony forming units (CFU) were determined.
The results are averages from experiments performed on three separate days for each test compound. The values reported are as loglo CFU.

The structures appear in SMILES notation.

Experimental for E. coli UTI89[pCOMGFP]: Briefly, E. coli UTI89[pCOMGFP] was prepared after retrieval from frozen stocks by inoculating appropriately in LB medium statically for approximately 20 hours. Cells were harvested and suspended in 1 ml of PBS. Cells were diluted appropriately to achieve approximately 10^7 CFU input into C3H/HeN mice.
Mice were deprived of water for approximately two hours. All mice were anesthetized with isofluorane. Urine was dispelled from the bladders and an inoculum of approximately 10^7 CFU of E. coli were introduced into the bladders as indicated above. Treatments of sulfamethoxazole and trimethoprim (SMZ/TMP), asiatic acid, and combination of SMZ/TMP and asiatic acid was evaluated.
3 mice received asiatic acid by orally at approximately 25 milligram per kilogram twice a day beginning one day prior to infection each day during the experiment. Asiatic acid was prepared in 50% Labrasol®. 5 mice received SMZ/TMP in their drinking water at a concentration of 270 micrograms of SMZ per millilter and 54 micrograms of TMP per milliliter immediately after infection throughout the experiment. 5 mice received asiatic acid and SMZ/TMP in combination dosed according to the individual dosing groups. The experiment was performed for approximately 2 days after inoculation. […] The bladders were removed and colony forming units (CFU) were determined as previously described by Justice, S. et al.

The compound `C[C@H]1[C@H](C)CC[C@]2(C(=O)O)CC[C@]3(C)C(=CC[C@@H]4[C@@]5(C)C[C@@H](O)[C@H](O)[C@@](C)(CO)[C@@H]5CC[C@]43C)[C@H]12` [Asiatic acid] showed a concentration at 24 h in series [1] of approximately 30000 ng/g. Besides, the “average detachment of mature biofilms” value in series [2] is reported as “approximately 50%”. Also, the “bladder CFU” value in the series on E. coli UTI89[pCOMGFP] (combination of SMZ/TMP and asiatic acid) is given as 2.3×10^4 CFU; in the series with E. coli UTI89[pCOMGFP] (single treatment (asiatic acid 25 mg/kg oral twice a day; SMZ/TMP 270/54 micrograms per ml in drinking water)), 2.9×10^3 CFU. For the same compound, the “CFU, Test Compound” value in series [3] (test compound 50 μg/ml 24 h) was 7.7 loglo CFU; in series [3] (test compound 100 μg/ml 24 h), 7.7 loglo CFU; in series [3] (test compound 200 μg/ml 24 h), 7.5 loglo CFU. The “CFU, Tobramycin and Test Compound” value in series [3] (test compound 50 μg/ml 24 h) came to 5.3 loglo CFU; in series [3] (test compound 100 μg/ml 24 h), 5.5 loglo CFU; in series [3] (test compound 200 μg/ml 24 h), 5.2 loglo CFU.
